Source: US4096259A, “Non-amphetaminic psychostimulating compositions of 1,4-disubstituted piperazines” (priority 1975, dated 1978)

Tests used:
[1] = Acute toxicity (LD50) in mice, per os; conditions: mouse, in vivo, po
Source text: Acute toxicity was studied by determining the LD50 in mice, the derivatives being administered per os.

[2] = test system: exploration response in mice; test: Psychostimulating activity: increase of exploration response in mice (actimetry); format: in vivo; conditions: Mus musculus, po, per os, dose which increases exploration response by 50%
Source text: The psychostimulating activity was studied by determining the dose which increases the exploration response in mice (actimetry) by 50% (ED50),according to the method described by BOISSIER J.R. and SIMON P. (Arc. Int. Pharmacolyn, 1965, 212-221158).

rat isolated duodenum = test: In vitro papaverine spasmolytic activity: duodenum contractions in rats induced by barium chloride; conditions: for Spasmolytic activity (papaverine hydrochloride = 1): in vitro, rat duodenum, barium chloride, relative to papaverine hydrochloride = 1
Protocol: The papaverine spasmolytic activity was measured "in vitro" by the concentration ratio: active principle/papaverine hydrochloride concentration, which reduces duodenum contractions in rats, induced by barium chloride, by 50% according to the method of POMARET J. C., SERGANT - ODY M., POURRIAS B. and HUGUET G. (Therapie, 1969, 24, 109-143).
(§1) Table V below gives, by way of example, the complementary pharmacological activities such as antiserotonin, adrenolytic and atropinic activities for derivatives N° 21, 23 and 33, the spasmolytic activity of which is the greatest for the rat isolated duodenum.

[3] = Group toxicity (LD50 grouped mice / LD50 isolated mice); conditions: mouse, in vivo
[4] = test system: mortality with pentetrazole in mice; test: Potentiation of mortality with pentetrazole in mice; format: in vivo; conditions: per os
[5] = test system: ptose with reserpine in mice; test: Ptose antagonism with reserpine in mice; format: in vivo; conditions: Mus musculus, po, per os
sleep in mice = test: Anti-sleep activity in mice; format: in vivo
[6] = test system: dog cardiovascular system; test: Secondary action on the dog cardiovascular system, intravenous; format: in vivo; conditions: intravenous administration
rabbit aorta = test: In vitro spasmolytic action on the rabbit aorta; conditions: papaverine hydrochloride = 1
Source text: as §1

rabbit isolated ear = test: In vitro spasmolytic action on the rabbit isolated ear; conditions: papaverine hydrochloride = 1
Source text: as §1

paw vessels of the dog = test: In vivo spasmolytic action on paw vessels of the dog; conditions: papaverine hydrochloride = 1
Source text: as §1

[7] = test system: Guinea-pig seminal vesicle; test: In vitro adrenolytic action on the Guinea-pig seminal vesicle; conditions: Yohimbine hydrochloride = 1
Source text: as §1

Guinea-pig ileum = test: In vitro atropinic action on the Guinea-pig ileum; conditions: Atropine sulfate = 1
Source text: as §1

Compound	LD50 [1] [mg/kg]	ED50 [2] [mg/kg]	Spasmolytic activity (papaverine hydrochloride = 1) (rat isolated duodenum)	other results
O=C(O)CCCCN1CCN(CCOC(c2ccccc2)c2ccc(F)cc2)CC1 (stereo not shown) [Derivative 13]	1400	35	–	–
O=C(O)CCN1CCN(CCOC(c2ccccc2)c2ccc(Cl)cc2)CC1 (stereo not shown) [Derivative 8]	1000	30	–	–
O=C(O)CN1CCN(CCOC(c2ccccc2)c2ccccc2)CC1 [Derivative 1]	> 1600	400	–	–
COC(=O)CCCCN1CCN(CCOC(c2ccc(F)cc2)c2ccc(F)cc2)CC1 [Derivative 14]	500	45	3,5	–
CCOC(=O)CCN1CCN(CCOC(c2ccccc2)c2ccc(C)cc2)CC1 (stereo not shown) [Derivative 19]	> 1600	> 400	1,5	–
NC(=O)CCN1CCN(CCOC(c2ccccc2)c2ccccc2)CC1 [Derivative 30]	1000	80	0,1	–
CCOC(=O)CCN1CCN(CCOC(c2ccccc2)c2ccc(Cl)cc2)CC1 (stereo not shown) [Derivative 18]	1400	30	1	–
CCOC(=O)CCN1CCN(CCCOC(c2ccccc2)c2ccc(F)cc2)CC1 (stereo not shown) [Derivative 28]	800	< 100	6,5	–
O=C(O)CCN1CCN(CCOC(c2ccccc2)c2ccccc2)CC1 [Derivative 2]	2250	80	–	selectivity ratio [3]: 0.6; Potentiation of mortality with pentetrazole in mice ED50 [4]: 320 mg/kg; ED50 [5]: 55 mg/kg; Anti-sleep activity in mice (sleep in mice): Nil; secondary action on the dog cardiovascular system [6]: devoid of any secondary action
O=C(CN1CCN(CCOC(c2ccc(F)cc2)c2ccc(F)cc2)CC1)N1CCN(Cc2ccc3c(c2)OCO3)CC1 [Derivative 34]	> 1600	160	1,5	–
N#CCCN1CCN(CCOC(c2ccccc2)c2ccccc2)CC1 [Derivative 29]	300	40	1	–
CCCC(OCCN1CCN(CCC(=O)OCC)CC1)c1ccc(F)cc1 (stereo not shown) [Derivative 36]	1600	> 100	5	–
O=C(O)CCN1CCN(CCOC(c2ccccc2)c2cccc(C(F)(F)F)c2)CC1 (stereo not shown) [Derivative 6]	1200	200	–	–
CCOC(=O)CCN1CCN(CCOC(c2ccccc2)c2ccccc2)CC1 [Derivative 16]	2000	100	1,5	selectivity ratio [3]: 0.8; Potentiation of mortality with pentetrazole in mice ED50 [4]: > 400 mg/kg; ED50 [5]: 190 mg/kg; Anti-sleep activity in mice (sleep in mice): Nil; secondary action on the dog cardiovascular system [6]: devoid of any secondary action
CCOC(=O)CN1CCN(CCOC(c2ccc(F)cc2)c2ccc(F)cc2)CC1 [Derivative 15]	1200	40	6,5	–
CCOC(=O)CCN1CCN(CCCOC(c2ccccc2)c2ccccc2)CC1 [Derivative 27]	800	50	3,5	–
O=C(O)CCCN1CCN(CCOC(c2ccccc2)c2ccc(F)cc2)CC1 (stereo not shown) [Derivative 12]	1200	35	0,1	–

Compound	LD50 [1] [mg/kg]	ED50 [2] [mg/kg]	Spasmolytic activity (papaverine hydrochloride = 1) (rat isolated duodenum)	other results
CCOC(=O)CCCN1CCN(CCOC(c2ccccc2)c2ccc(F)cc2)CC1 (stereo not shown) [Derivative 24]	700	50	2,5	–
O=C(CN1CCN(CCOC(c2ccccc2)c2ccccc2)CC1)N1CCOCC1 [Derivative 31]	800	100	0,5	–
O=C(O)CCN1CCN(CCOC(c2ccc(F)cc2)c2ccc(F)cc2)CC1 [Derivative 11]	700	30	0,1	–
COc1cc(C(OCCN2CCN(CCC(=O)O)CC2)c2ccccc2)cc(OC)c1OC (stereo not shown) [Derivative 10]	> 1600	> 400	–	–
CCOC(=O)CCCN1CCN(CCOC(c2ccc(F)cc2)c2ccc(F)cc2)CC1 [Derivative 23]	800	50	13,5	spasmolytic activity for the rat isolated duodenum (in words) (rat isolated duodenum; rat isolated duodenum): greatest; In vitro spasmolytic action on the rabbit aorta (rabbit aorta): 3; In vitro spasmolytic action on the rabbit isolated ear (rabbit isolated ear): 0,3; In vivo spasmolytic action on paw vessels of the dog (paw vessels of the dog): 2; In vitro adrenolytic action on the Guinea-pig seminal vesicle [7]: 3; In vitro atropinic action on the Guinea-pig ileum (Guinea-pig ileum): > 0,01
COc1ccccc1C(OCCN1CCN(CCC(=O)O)CC1)c1ccccc1 (stereo not shown) [Derivative 7]	1400	> 400	–	–
CCCC(OCCN1CCN(CCC(=O)O)CC1)c1ccccc1 (stereo not shown) [Derivative 35]	> 1600	60	–	–
COc1ccccc1N1CCN(C(=O)CN2CCN(CCOC(c3ccccc3)c3ccccc3)CC2)CC1 [Derivative 32]	1200	100	2	–
CCOC(=O)CCN1CCN(CCOC(c2ccccc2)c2ccccc2Cl)CC1 (stereo not shown) [Derivative 17]	1600	> 200	1,5	–
O=C(O)CCCN1CCN(CCOC(c2ccccc2)c2ccccc2)CC1 [Derivative 3]	1500	80	–	selectivity ratio [3]: 1.25; Potentiation of mortality with pentetrazole in mice ED50 [4]: > 300 mg/kg; ED50 [5]: 160 mg/kg; Anti-sleep activity in mice (sleep in mice): Nil; secondary action on the dog cardiovascular system [6]: devoid of any secondary action
CCCCOC(=O)CCN1CCN(CCOC(c2ccc(F)cc2)c2ccc(F)cc2)CC1 [Derivative 25]	500	40	0,5	–
Cc1ccc(C(OCCN2CCN(CCC(=O)O)CC2)c2ccccc2)cc1 (stereo not shown) [Derivative 9]	1400	100	–	–
CCOC(=O)CCN1CCN(CCOC(c2ccc(C)cc2)c2ccc(F)cc2)CC1 (stereo not shown) [Derivative 22]	> 1600	35	5,5	–
CCCCCCOC(=O)CCN1CCN(CCOC(c2ccc(F)cc2)c2ccc(F)cc2)CC1 [Derivative 26]	800	200	1	–
CCOC(=O)CCN1CCN(CCOC(c2ccccc2)c2ccc([N+](=O)[O-])cc2)CC1 (stereo not shown) [Derivative 20]	> 1600	> 400	5,5	–
O=C(O)CN1CCN(CCOC(c2ccccc2)c2ccc(F)cc2)CC1 (stereo not shown) [Derivative 4]	1600	60	–	–
